Assay results as given in US20050272636A1, “Treatment and diagnosis of a reproductive disorder by measuring or inhibiting interferon-gamma” (Adelaide Research & Innovation Pty Ltd., priority 2002, published 2005).

Tests used:
[1] = system: murine uterine epithelial cells; assay: Effect of rIFNγ and rTGFβ on GM-CSF production in cultured uterine epithelial cells (Example 2); format: cell-based, mouse; conditions: rTGFβ 5 ng/ml; DMEM +penicillin; two experiments
Protocol: Uterine Epithelial Cell Cultures. Uterine epithelial cells prepared as previously described (Robertson et al., Biol Reprod 46:1069-1079 (1992)) were pooled from 4-6 estrous C57B1/6 or C57B1/6×Balb/c F1 mice and plated in 1 ml culture wells (Nunc, Roskilde, Germany) at 1-2×10^5 cells per ml in 500 μl of Dulbecco's modified Eagles medium containing 10% FCS, […] streptomycin sulphate and […] benzyl penicillin (DMEM +penicillin). After 4 h incubation at 37° C. in 5% CO2 to allow cell adherence, a further 500 μl of DMEM +penicillin, or DMEM +penicillin plus recombinant mouse IFNγ (rIFNγ) and/or recombinant human TGFβ1 (rTGFβ), were added. In some experiments, penicillin-free DMEM (DMEM −penicillin) was used throughout. Culture supernatants were collected and replaced with fresh medium at 16 hours, then collected again 24 hours later, at which time GM-CSF content was determined and adherent cells were quantified as previously described (Robertson et al., Biol Reprod 46:1069-1079 (1992)). All treatments were performed in duplicate or triplicate. rTGFβ and rIFNγ were obtained from R&D Systems, UK.
GM-CSF bioassay: GM-CSF was assayed using the GM-CSF dependant cell line FD 5/12, essentially as previously described (Robertson et al., Biol Reprod 46:1069-1079 (1992)). Cell proliferation was determined by pulsing with 1 μCi of [^3H]-thymidine per well for the last 6 h of the assay. The minimal detectable amount of GM-CSF was 20 pg/ml. The identity of the bioactivity in uterine epithelial cell cultures was confirmed using a goat polyclonal antibody to murine GM-CSF (DNAX, Palo Alto, Calif.) as previously described (Robertson et al., Biol Reprod 46:1069-1079 (1992)). GM-CSF production is expressed as ng GM-CSF/10^5 cells/24 h. Recombinant mouse GM-CSF was obtained from R&D Systems.

IFNγ = assay: Inhibitors and antagonists counteracting the GM-CSF-inhibiting actions of IFNγ in uterine epithelial cells (Example 3); format: cell-based, mouse; conditions: added in combination with IFNγ; dose-responsive, 5 ng/ml greater effect than 0.5 ng/ml
Protocol: Several inhibitors and antagonists of IFNγ were tested for their ability to counteract the GM-CSF-inhibiting actions of IFNγ in epithelial cells.
Uterine Epithelial Cell Cultures. Uterine epithelial cells prepared by pancreatin-trypsin digest as previously described (Robertson et al., (1992) Biol. Reprod. 46:1069-1079) were pooled from 4-6 estrous adult C57B1/6×CBA F1 female mice and plated in 1 ml culture wells (Nunc, Roskilde, Germany) at 1-2×10^5 cells per ml in 500 μl of RPMI containing 10% FCS and streptomycin (RPMI-FCS). Penicillin was omitted from culture media except where specified. After 4 h incubation at 37° C. in 5% CO2 to allow cell adherence, a further 500 μl of cytokines or antibodies in RPMI-FCS, or RPMI-FCS alone, were added. Cytokine treatments included recombinant mouse interferon-γ (rmIFNγ; R&D Systems), recombinant human transforming growth factor β1 (rhTGFβ1, R&D Systems), rhTGFβ2 (R&D Systems), rhTGFβ3 (OSI Pharmaceuticals). Antibody treatments included goat anti-mouse IFNγ receptor 1 (αIFNγR; R&D Systems AF1026) and hamster anti-mouse IFNγ (αIFNγ; R&D Systems MAB4851). Culture supernatants were collected and replaced with fresh complete RPMI-FCS alone at 16 hours, then collected again 24 hours later, at which time adherent cells were quantified as previously described (Robertson et al., (1992) Biol. Reprod. 46:1069-1079). The GM-CSF content of 24 h supernatants was determined by GM-CSF bioassay or immunoassay. All treatments were performed in duplicate or triplicate.
GM-CSF bioassay and immunoassay: Bioactive GM-CSF was assayed using the GM-CSF dependant cell line FD 5/12, essentially as previously described (Robertson et al., (1992) Biol. Reprod. 46:1069-1079). Cell proliferation was determined by the addition of 1 μCi of [^3H]-thymidine per well for the last 6 h of the assay. The minimal detectable amount of GM-CSF was […] The identity of the bioactivity in uterine epithelial cell cultures was confirmed using a goat polyclonal antibody to murine GM-CSF kindly provided by J. Schreurs (DNAX, Palo Alto, Calif.) as previously described (Robertson et al., (1992) Biol. Reprod. 46:1069-1079). GM-CSF immunoactivity was in some experiments measured by commercial mouse GM-CSF specific ELISA (R & D Systems) according to the manufacturer's instructions.

Substance: rhTGFβ1: recombinant human transforming growth factor β1 (R&D Systems)
- increase in GM-CSF production [1]: approximately 6 fold
- effect of TGFβ isoform on the inhibitory effect of IFNγ on GM-CSF synthesis (IFNγ): counteracted the inhibitory effect
